Values joined by “and” are separate entries in the source; they are usually repeats but may differ in a detail not shown here. Equal entries are not always repeated.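 Each compound was tested at five concentrations against cells in 96-well plates for 48 hours. Here, GI50 denotes the concentration required for 50% inhibition of growth. Definition used: TGI = concentration required for complete inhibition of growth.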
Test system: HCT-15 colon
Assay: inhibition of tumour cell growth, NCI panel, 48 h

Row | SMILES | TGI | GI50
1 | COC(=O)CC(c1ccccc1)C1(c2ccccc2)SCCS1 (stereo unspecified) | > 290 µM | –
2 | CCOC(=O)C1=C(C(=O)OCC)C2c3ccccc3C=CN2C(C(=O)OCC)=C(SC)S1 (stereo unspecified) | > 100 µM | –
3 | CCCCCCCCCCCCCCCC[N+](C)(C)Cc1ccccc1 | 15.8 µM and > 30.4 µM | 2.86 µM and 3.24 µM
4 | CC(=O)NNc1nc(C)c(C(=O)/C=C/c2ccc(NC(C)=O)cc2)s1 | > 100 µM | –
5 | CCCCCC[C@@H]1CCC2C(CO)[C@@H](O)CC[C@@H]2C1 (stereo partly specified) | 33.4 µM | –
6 | NC(=O)c1ccccc1NC(=O)C(=O)C(C(=O)c1ccc(Cl)c(Cl)c1)C1OC(=O)c2ccccc21 (stereo unspecified) | > 100 µM | –
7 | S=c1sc2c(n1-c1ccccc1)NC=NC2S (stereo unspecified) | > 100 µM | –
8 | Cc1ccc(/C=C/C(=O)CCN(C)C)cc1 | 38.2 µM | –
9 | Cc1ccc(Oc2ccc(C)cc2N)cc1 | > 100 µM | –
10 | c1ccc(NCn2cnc3ccccc32)cc1 | > 100 µM | –
11 | O=C(Oc1ccc(Cl)cc1)c1ccccc1Nc1ccnc(C(F)(F)F)c1 | 5.13 µM | 2.07 µM
12 | Cc1cc2c(C)[nH]nc2c(C(=O)O)c1C | > 100 µM | –
13 | N#C/C(=C\c1cccc(Cl)c1Cl)c1ccccc1 | > 77.6 µM | –
14 | C/C(=N/Nc1ccc([N+](=O)[O-])cc1[N+](=O)[O-])C(CC(C(=O)NCc1ccccc1)/C(C)=N\Nc1ccc([N+](=O)[O-])cc1[N+](=O)[O-])C(=O)NCc1ccccc1 (stereo unspecified) | 26 µM | –
15 | COc1ccc(-c2cn[nH]c2-c2cc(OC)c(OC)c(OC)c2)cc1 | 21.8 µM | 0.0217 µM
16 | N[C@@H]1CCCC[C@@H]1N.O=P([O-])([O-])CN(CCN(CP(=O)([O-])[O-])CP(=O)([O-])[O-])CP(=O)([O-])[O-].[Pt+2] | > 25 µM | > 25 µM
17 | CCC(=C/[C@H](C)C/C=C/C(C)=C/[C@@H](C)C(=O)[C@@H](C)[C@H](O)[C@@H](C)CC)/C=C/[C@H]1OC(=O)C=C[C@@H]1C | 1.28 µM | < 0.01 µM
18 | COc1ccc(OC)c(N2CC(N)C2=O)c1 (stereo unspecified) | > 100 µM | –
19 | Nc1ccccc1SC(CC(=O)c1ccccc1)c1cccc([N+](=O)[O-])c1 (stereo unspecified) | 28.4 µM | 11.5 µM

Row | SMILES | TGI | GI50
20 | O=C(/C=C/c1ccc([N+](=O)[O-])cc1)c1ccc(NCc2nc3ccccc3[nH]2)cc1 | 11.8 µM | –
21 | Cc1cccc(C)c1NC(=O)CCCC(=O)C1/C(=N/NC(=O)CC#N)CCC/C1=N\NC(=O)CC#N (stereo unspecified) | > 100 µM | –
22 | COc1ccc2nc(NC(=O)CSc3nnc4n3S(=O)(=O)c3ccccc3N4c3ccccc3)sc2c1 | > 100 µM | > 100 µM
23 | O=c1ccc2ccccc2cc1[O-].O=c1ccc2ccccc2cc1[O-].[O]=[U+2]=[O] | > 100 µM | 17.6 µM
24 | Cc1ccc(-n2c3nc(=O)[nH]c(=O)c-3cc3cc([N+](=O)[O-])ccc32)cc1 | > 100 µM | 25.5 µM
25 | COC(=O)C(CCCN1C(=O)c2ccccc2C1=O)C(=O)OC | > 100 µM | –
26 | COc1nc(NC2OC(COC(C)=O)C(OC(C)=O)C(OC(C)=O)C2OC(C)=O)c2c(OC(C)=O)cc(=O)oc2n1 (stereo unspecified) | > 100 µM | –
27 | CC(C)(C)c1cc2c(O)c3cccc4c(=O)c5cccc6c5-c(c34)c2c(c1)c6=O | > 100 µM | –
28 | COc1cc(/C(C#N)=C/c2nc3c(N4CCOCC4)nc(Cl)nc3n2C)cc(OC)c1OC | 6.94 µM | < 0.01 µM
29 | O=S(=O)(N/N=C/c1cccc(/C=N/NS(=O)(=O)c2ccccc2)c1)c1ccccc1 | > 100 µM | –
30 | CCCCN(CCCC)C(=O)C(=O)C(C(=O)c1ccc(OC)cc1)c1ccc(OC)cc1 (stereo unspecified) | > 100 µM | –
31 | C=C(C)CCOC(c1ccccc1)(c1ccccc1)c1ccccc1 | > 100 µM | –
32 | COc1ccc(C)cc1-c1cc(Sc2ccccc2)c(-c2cc(C)ccc2OC)o1 | > 31.6 µM | –
33 | CCn1c(-c2nonc2N)nc2c(C#CC(C)(C)O)nc(OC[C@@H](N)c3ccccc3)cc21 | 21.1 µM | 5.78 µM
34 | Cn1ccc2c3c(Oc4ccc(NC(N)=O)cc4)ccnc3ccc21 | > 100 µM | > 100 µM
35 | CC(=O)OCCOCNC(=S)N/N=C(\C)c1cnccn1 | > 100 µM | –
36 | O=C(Nc1ccccc1-c1nn(C(=S)Nc2ccccc2)c(=S)n(C(=S)Nc2ccccc2)c1=O)C(F)(F)F | > 78.3 µM | –
37 | O=c1c(-c2ccccc2)c2oc(c1-c1ccccc1)CSCc1cccc(c1)CSC2 | > 100 µM | –
38 | CN(C)CCn1c2c3ccccc3ccc2c2oc(=O)c3ccccc3c21 | 46.9 µM | –

Test system: BT-549 breast
Assay: inhibition of tumour cell growth, NCI panel, 48 h

Row | SMILES | GI50 [µM] | TGI [µM]
39 | O=C(Oc1ccc(Cl)cc1)c1ccccc1Nc1ccnc(C(F)(F)F)c1 | 14.9 | 41.2
40 | CCC(=C/[C@H](C)C/C=C/C(C)=C/[C@@H](C)C(=O)[C@@H](C)[C@H](O)[C@@H](C)CC)/C=C/[C@H]1OC(=O)C=C[C@@H]1C | < 0.01 | 0.429
41 | Nc1ccccc1SC(CC(=O)c1ccccc1)c1cccc([N+](=O)[O-])c1 (stereo unspecified) | 17 | 30.9
42 | COc1ccc2nc(NC(=O)CSc3nnc4n3S(=O)(=O)c3ccccc3N4c3ccccc3)sc2c1 | > 100 | > 100
43 | Cc1ccc(-n2c3nc(=O)[nH]c(=O)c-3cc3cc([N+](=O)[O-])ccc32)cc1 | 6.49 | 27.8
44 | COc1cc(/C(C#N)=C/c2nc3c(N4CCOCC4)nc(Cl)nc3n2C)cc(OC)c1OC | < 0.01 | 0.481
45 | CCn1c(-c2nonc2N)nc2c(C#CC(C)(C)O)nc(OC[C@@H](N)c3ccccc3)cc21 | 3.94 | 7.48
46 | Cn1ccc2c3c(Oc4ccc(NC(N)=O)cc4)ccnc3ccc21 | > 100 | > 100

Test system: SNB-19 CNS
Assay: inhibition of tumour cell growth, NCI panel, 48 h

Row | SMILES | TGI [µM] | GI50 [µM]
47 | COC(=O)CC(c1ccccc1)C1(c2ccccc2)SCCS1 (stereo unspecified) | > 290 | –
48 | CCOC(=O)C1=C(C(=O)OCC)C2c3ccccc3C=CN2C(C(=O)OCC)=C(SC)S1 (stereo unspecified) | > 100 | –
49 | CC(=O)NNc1nc(C)c(C(=O)/C=C/c2ccc(NC(C)=O)cc2)s1 | > 100 | –
50 | CCCCCC[C@@H]1CCC2C(CO)[C@@H](O)CC[C@@H]2C1 (stereo partly specified) | 35.8 | –
51 | NC(=O)c1ccccc1NC(=O)C(=O)C(C(=O)c1ccc(Cl)c(Cl)c1)C1OC(=O)c2ccccc21 (stereo unspecified) | > 100 | –
52 | S=c1sc2c(n1-c1ccccc1)NC=NC2S (stereo unspecified) | > 100 | –
53 | Cc1ccc(/C=C/C(=O)CCN(C)C)cc1 | > 100 | –
54 | Cc1ccc(Oc2ccc(C)cc2N)cc1 | > 100 | –
55 | c1ccc(NCn2cnc3ccccc32)cc1 | > 100 | –
56 | Cc1cc2c(C)[nH]nc2c(C(=O)O)c1C | > 100 | –
57 | N#C/C(=C\c1cccc(Cl)c1Cl)c1ccccc1 | > 90.7 | –
58 | C/C(=N/Nc1ccc([N+](=O)[O-])cc1[N+](=O)[O-])C(CC(C(=O)NCc1ccccc1)/C(C)=N\Nc1ccc([N+](=O)[O-])cc1[N+](=O)[O-])C(=O)NCc1ccccc1 (stereo unspecified) | 31 | –
59 | COc1ccc(-c2cn[nH]c2-c2cc(OC)c(OC)c(OC)c2)cc1 | > 74.9 | 0.0631
60 | N[C@@H]1CCCC[C@@H]1N.O=P([O-])([O-])CN(CCN(CP(=O)([O-])[O-])CP(=O)([O-])[O-])CP(=O)([O-])[O-].[Pt+2] | > 25 | > 25
61 | CCC(=C/[C@H](C)C/C=C/C(C)=C/[C@@H](C)C(=O)[C@@H](C)[C@H](O)[C@@H](C)CC)/C=C/[C@H]1OC(=O)C=C[C@@H]1C | 2.12 | < 0.01
62 | COc1ccc(OC)c(N2CC(N)C2=O)c1 (stereo unspecified) | > 100 | –

Row | SMILES | TGI [µM] | GI50 [µM]
63 | Nc1ccccc1SC(CC(=O)c1ccccc1)c1cccc([N+](=O)[O-])c1 (stereo unspecified) | 27.4 | 14.3
64 | O=C(/C=C/c1ccc([N+](=O)[O-])cc1)c1ccc(NCc2nc3ccccc3[nH]2)cc1 | 14.5 | –
65 | Cc1cccc(C)c1NC(=O)CCCC(=O)C1/C(=N/NC(=O)CC#N)CCC/C1=N\NC(=O)CC#N (stereo unspecified) | > 100 | –
66 | COc1ccc2nc(NC(=O)CSc3nnc4n3S(=O)(=O)c3ccccc3N4c3ccccc3)sc2c1 | > 100 | > 100
67 | Cc1ccc(-n2c3nc(=O)[nH]c(=O)c-3cc3cc([N+](=O)[O-])ccc32)cc1 | 74 | 17.3
68 | COC(=O)C(CCCN1C(=O)c2ccccc2C1=O)C(=O)OC | > 100 | –
69 | COc1nc(NC2OC(COC(C)=O)C(OC(C)=O)C(OC(C)=O)C2OC(C)=O)c2c(OC(C)=O)cc(=O)oc2n1 (stereo unspecified) | > 100 | –
70 | CC(C)(C)c1cc2c(O)c3cccc4c(=O)c5cccc6c5-c(c34)c2c(c1)c6=O | > 100 | –
71 | COc1cc(/C(C#N)=C/c2nc3c(N4CCOCC4)nc(Cl)nc3n2C)cc(OC)c1OC | > 100 | < 0.01
72 | O=C1C=CC(=O)c2nc3c(cc21)CCC3 | > 100 | –
73 | CCCCN(CCCC)C(=O)C(=O)C(C(=O)c1ccc(OC)cc1)c1ccc(OC)cc1 (stereo unspecified) | > 100 | –
74 | C=C(C)CCOC(c1ccccc1)(c1ccccc1)c1ccccc1 | > 100 | –
75 | COc1ccc(C)cc1-c1cc(Sc2ccccc2)c(-c2cc(C)ccc2OC)o1 | > 31.6 | –
76 | CCn1c(-c2nonc2N)nc2c(C#CC(C)(C)O)nc(OC[C@@H](N)c3ccccc3)cc21 | 11.6 | 6
77 | Cn1ccc2c3c(Oc4ccc(NC(N)=O)cc4)ccnc3ccc21 | > 100 | > 100
